Data from patent publication US11203563B2, “Preparation of zinc linolenate, and application of zinc linolenate in preparing anti-helicobacter pylori drug” (NANJING MEDICAL UNIVERSITY, priority 2018, dated 2021).

Experiments:
Assay in all cases: MIC by microdilution method, non-Helicobacter pylori bacteria
Type in all cases: cell-based
Parameters in all cases: key: +: Bacterial growth; −: No bacterial growth
Conditions in all cases: 72 h
[1] = system: Actinobacillus actinomycetemcomitans
Method: (§1) 2.2 Detection of minimum inhibitory concentration (MIC, 100 µL system) of zinc linolenate for non-Helicobacter pylori bacteria by microdilution method
(§2) (1) Zinc linolenate (2 mg/mL) is prepared.
(§3) (3) Bacterial solution preparation: the non-Helicobacter pylori grown in a log phase on a solid plate is taken to make a bacterial suspension with a BHI culture medium, the absorbance (OD600) is adjusted to 0.3 (1×10^8 CFU/mL), and the bacterial suspension is diluted 100 times to 1×10^6 CFU/mL for use.
(§4) (4) Inoculation of bacterial solution: 10 μL of bacterial solution above is taken and added to the 1-8th wells (the concentration of the bacterial solution per well is about 1.0×10^5 CFU/mL). Culture is performed for 72 h to judge the result. The drug concentrations of the first-seventh wells are 128, 64, 32, 16, 8, 4, and 2 μg/mL, respectively.
(§5) The experiment only makes sense when the bacteria obviously grow in the 8th well, i.e. the positive control well (without antibiotics). When a single drift occurs in the microdilution method, the maximum drug concentration that inhibits bacterial growth should be recorded. If there are multiple drifts, the results should not be reported and the experiment should be repeated. The experiment is repeated 3 times for each drug.

Bacillus cereus = system: Bacillus cereus
Method: as §1, §2, §3, §4, §5

[2] = system: Campylobacter jejuni (NCTC11168)
Method: as §1, §2, §3, §4, §5

Candida albicans = system: Candida albicans
Method: as §1, §2, §3, §4, §5

[3] = system: Enterobacter cloacae (ATCC13047)
Method: as §1, §2, §3, §4, §5

[4] = system: Enterococcus faecalis (ATCC19434)
Method: as §1, §2, §3, §4, §5

[5] = system: Escherichia coli (MG1655)
Method: as §1, §2, §3, §4, §5

[6] = system: Klebsiella pneumoniae (YF173002)
Method: as §1, §2, §3, §4, §5

Lactobacillus = system: Lactobacillus
Method: as §1, §2, §3, §4, §5

Listeria = system: Listeria
Method: as §1, §2, §3, §4, §5

[7] = system: Mycobacterium smegmatis (MC^2 155)
Method: as §1, §2, §3, §4, §5

[8] = system: Neisseria gonorrhoeae (ATCC19424)
Method: as §1, §2, §3, §4, §5

[9] = system: Stenotrophomonas maltophilia
Method: as §1, §2, §3, §4, §5

[10] = system: Streptococcus pneumoniae (ATCC49619)
Method: as §1, §2, §3, §4, §5

CC/C=C\C/C=C\C/C=C\CCCCCCCC(=O)[O-].CC/C=C\C/C=C\C/C=C\CCCCCCCC(=O)[O-].[Zn+2] [zinc linolenate]
Bacterial growth ([1]; zinc linolenate 2 μg/ml): + | Bacterial growth ([1]; zinc linolenate 4 μg/ml): + | Bacterial growth ([1]; zinc linolenate 8 μg/ml): + | Bacterial growth ([1]; zinc linolenate 16 μg/ml): + | Bacterial growth ([1]; zinc linolenate 32 μg/ml): + | Bacterial growth ([1]; zinc linolenate 64 μg/ml): + | Bacterial growth ([1]; zinc linolenate 128 μg/ml): + | Bacterial growth (Bacillus cereus; zinc linolenate 2 μg/ml): + | Bacterial growth (Bacillus cereus; zinc linolenate 4 μg/ml): + | Bacterial growth (Bacillus cereus; zinc linolenate 8 μg/ml): + | Bacterial growth (Bacillus cereus; zinc linolenate 16 μg/ml): + | Bacterial growth (Bacillus cereus; zinc linolenate 32 μg/ml): + | Bacterial growth (Bacillus cereus; zinc linolenate 64 μg/ml): + | Bacterial growth (Bacillus cereus; zinc linolenate 128 μg/ml): + | Bacterial growth ([2]; zinc linolenate 2 μg/ml): + | Bacterial growth ([2]; zinc linolenate 4 μg/ml): + | Bacterial growth ([2]; zinc linolenate 8 μg/ml): + | Bacterial growth ([2]; zinc linolenate 16 μg/ml): + | Bacterial growth ([2]; zinc linolenate 32 μg/ml): + | Bacterial growth ([2]; zinc linolenate 64 μg/ml): + | Bacterial growth ([2]; zinc linolenate 128 μg/ml): + | Bacterial growth (Candida albicans; zinc linolenate 2 μg/ml): + | Bacterial growth (Candida albicans; zinc linolenate 4 μg/ml): + | Bacterial growth (Candida albicans; zinc linolenate 8 μg/ml): + | Bacterial growth (Candida albicans; zinc linolenate 16 μg/ml): + | Bacterial growth (Candida albicans; zinc linolenate 32 μg/ml): + | Bacterial growth (Candida albicans; zinc linolenate 64 μg/ml): + | Bacterial growth (Candida albicans; zinc linolenate 128 μg/ml): + | Bacterial growth ([3]; zinc linolenate 2 μg/ml): + | Bacterial growth ([3]; zinc linolenate 4 μg/ml): + | Bacterial growth ([3]; zinc linolenate 8 μg/ml): + | Bacterial growth ([3]; zinc linolenate 16 μg/ml): + | Bacterial growth ([3]; zinc linolenate 32 μg/ml): + | Bacterial growth ([3]; zinc linolenate 64 μg/ml): + | Bacterial growth ([3]; zinc linolenate 128 μg/ml): + | Bacterial growth ([4]; zinc linolenate 2 μg/ml): + | Bacterial growth ([4]; zinc linolenate 4 μg/ml): + | Bacterial growth ([4]; zinc linolenate 8 μg/ml): + | Bacterial growth ([4]; zinc linolenate 16 μg/ml): + | Bacterial growth ([4]; zinc linolenate 32 μg/ml): + | Bacterial growth ([4]; zinc linolenate 64 μg/ml): + | Bacterial growth ([4]; zinc linolenate 128 μg/ml): − | Bacterial growth ([5]; zinc linolenate 2 μg/ml): + | Bacterial growth ([5]; zinc linolenate 4 μg/ml): + | Bacterial growth ([5]; zinc linolenate 8 μg/ml): + | Bacterial growth ([5]; zinc linolenate 16 μg/ml): + | Bacterial growth ([5]; zinc linolenate 32 μg/ml): + | Bacterial growth ([5]; zinc linolenate 64 μg/ml): + | Bacterial growth ([5]; zinc linolenate 128 μg/ml): − | Bacterial growth ([6]; zinc linolenate 2 μg/ml): + | Bacterial growth ([6]; zinc linolenate 4 μg/ml): + | Bacterial growth ([6]; zinc linolenate 8 μg/ml): + | Bacterial growth ([6]; zinc linolenate 16 μg/ml): + | Bacterial growth ([6]; zinc linolenate 32 μg/ml): + | Bacterial growth ([6]; zinc linolenate 64 μg/ml): + | Bacterial growth ([6]; zinc linolenate 128 μg/ml): − | Bacterial growth (Lactobacillus; zinc linolenate 2 μg/ml): + | Bacterial growth (Lactobacillus; zinc linolenate 4 μg/ml): + | Bacterial growth (Lactobacillus; zinc linolenate 8 μg/ml): + | Bacterial growth (Lactobacillus; zinc linolenate 16 μg/ml): + | Bacterial growth (Lactobacillus; zinc linolenate 32 μg/ml): + | Bacterial growth (Lactobacillus; zinc linolenate 64 μg/ml): + | Bacterial growth (Lactobacillus; zinc linolenate 128 μg/ml): − | Bacterial growth (Listeria; zinc linolenate 2 μg/ml): + | Bacterial growth (Listeria; zinc linolenate 4 μg/ml): + | Bacterial growth (Listeria; zinc linolenate 8 μg/ml): + | Bacterial growth (Listeria; zinc linolenate 16 μg/ml): + | Bacterial growth (Listeria; zinc linolenate 32 μg/ml): + | Bacterial growth (Listeria; zinc linolenate 64 μg/ml): + | Bacterial growth (Listeria; zinc linolenate 128 μg/ml): + | Bacterial growth ([7]; zinc linolenate 2 μg/ml): + | Bacterial growth ([7]; zinc linolenate 4 μg/ml): + | Bacterial growth ([7]; zinc linolenate 8 μg/ml): + | Bacterial growth ([7]; zinc linolenate 16 μg/ml): + | Bacterial growth ([7]; zinc linolenate 32 μg/ml): + | Bacterial growth ([7]; zinc linolenate 64 μg/ml): + | Bacterial growth ([7]; zinc linolenate 128 μg/ml): + | Bacterial growth ([8]; zinc linolenate 2 μg/ml): + | Bacterial growth ([8]; zinc linolenate 4 μg/ml): + | Bacterial growth ([8]; zinc linolenate 8 μg/ml): + | Bacterial growth ([8]; zinc linolenate 16 μg/ml): + | Bacterial growth ([8]; zinc linolenate 32 μg/ml): + | Bacterial growth ([8]; zinc linolenate 64 μg/ml): + | Bacterial growth ([8]; zinc linolenate 128 μg/ml): + | Bacterial growth ([9]; zinc linolenate 2 μg/ml): + | Bacterial growth ([9]; zinc linolenate 4 μg/ml): + | Bacterial growth ([9]; zinc linolenate 8 μg/ml): + | Bacterial growth ([9]; zinc linolenate 16 μg/ml): + | Bacterial growth ([9]; zinc linolenate 32 μg/ml): + | Bacterial growth ([9]; zinc linolenate 64 μg/ml): + | Bacterial growth ([9]; zinc linolenate 128 μg/ml): − | Bacterial growth ([10]; zinc linolenate 2 μg/ml): + | Bacterial growth ([10]; zinc linolenate 4 μg/ml): + | Bacterial growth ([10]; zinc linolenate 8 μg/ml): + | Bacterial growth ([10]; zinc linolenate 16 μg/ml): + | Bacterial growth ([10]; zinc linolenate 32 μg/ml): + | Bacterial growth ([10]; zinc linolenate 64 μg/ml): + | Bacterial growth ([10]; zinc linolenate 128 μg/ml): +
